Assay results: patent US20210353648A1, “GRAPIPRANT UNIT DOSAGE FORMS” (Arrys Therapeutics, Inc., priority 2018, published 2021)

Tests used:
Format in all cases: in vivo, BALB/c mice
CT-26 tumors = assay: Immune cell composition of CT-26 tumors by flow cytometry; conditions: after 7 days dosing; Compound B 15 mg/kg BID, anti-PD-1 10 mg/kg Q3D; versus vehicle
Method: The immune cell composition of Compound B (as described in example 9 above) as a single agent and combined with a mouse anti-PD1 antibody was evaluated in the CT-26 mouse colon adenocarcinoma model grown in BALB/c mice. Mice were inoculated subcutaneously in the right flank with 5×10^5 tumor cells. When tumors reached an average size of 85 mm^3 dosing was initiated. The dosing regimens in the 4 separate cohorts comprising 10 mice each are listed as follows:
After dosing animals for 7 days, tumors were resected and used to prepare single cell suspensions. Live cells representing tumor and immune cells were stained with cocktails of antibodies targeting multiple immune cell markers (anti-CD45, anti-CD3, anti-CD4, anti-CD8, anti-CD25, anti-FoxP3, anti-PD-1, anti-CD11c) conjugated to different fluorescent tags. The stained cells were fixed in 4% paraformaldehyde and quantified using a multi-color flow cytometer (Fortessa). The data was analyzed with FloJo software.

[1] = test system: CT-26 mouse colon adenocarcinoma model; assay: Anti-tumor activity in the CT-26 colon adenocarcinoma mouse model, alone and with anti-PD-1
Method: (§1) The antitumor activity of Compound B as a single agent and combined with a mouse anti-PD-1 antibody was evaluated in the CT-26 mouse colon adenocarcinoma model grown in BALB/c mice. Mice were inoculated subcutaneously in the right flank with 5×10^5 tumor cells. When tumors reached an average size of 71 mm^3 (6 days after tumor cell inoculation) dosing was initiated. The dosing regimens in the 8 separate cohorts comprising 10 mice each are as follows: […]

[2] = test system: CT-26 mouse colon adenocarcinoma model; assay: Anti-tumor activity in the CT-26 model, additional experiment with anti-PD1; conditions: single agents (Compound B 15 mg/kg BID; anti-PD1 10 mg/kg BIW) versus vehicle, n=7/group
Method: as §1, with “mouse anti-PD1” for “mouse anti-PD-1”, “BALB/c mice in an additional experiment.” for “BALB/c mice.”, “of 91” for “of 71”, “mm^3” for “mm^3 (6 days after tumor cell inoculation)”, “the 4” for “the 8”, “comprising 7” for “comprising 10”

[3] = test system: 4T1 mouse breast cancer model; assay: Anti-tumor activity in the 4T1 breast cancer mouse model, alone and with anti-CTLA4
Method: The antitumor activity of Compound B (as described in example 9 above) as a single agent and combined with a mouse anti-CTLA4 antibody was evaluated in the 4T1 mouse breast cancer model grown in BALB/c mice. Mice were inoculated subcutaneously in the right flank with 3×10^5 tumor cells. When tumors reached an average size of 100 mm^3 (7 days after tumor cell inoculation) dosing was initiated.

[4] = test system: 4T1 mouse breast cancer model; assay: Anti-tumor activity in the 4T1 model, additional experiment with anti-PD1; conditions: Compound B 15 mg/kg BID single agent, n=7/group
Method: The antitumor activity of Compound B as a single agent and combined with a mouse anti-PD1 antibody was evaluated in the 4T1 mouse breast cancer model grown in BALB/c mice in an additional experiment. Mice were inoculated subcutaneously in the right flank with 3×10^5 tumor cells. When tumors reached an average size of 97 mm^3 dosing was initiated. The dosing regimens in the 4 separate cohorts comprising 7 mice each are as follows: […]

C[C@H](NC(=O)c1cc(Cl)cnc1Oc1cccc(F)c1)c1ccc(C(=O)O)cc1 [Compound B]
percentage of activated T cells (CD45, CD3, CD8; CD25 expression) (CT-26 tumors): did not
percentage of dendritic cells (CD45, CD11c positive) (CT-26 tumors): increased percentage
regulatory T cells (CD45, CD4, FoxP3, CD25 positive) (CT-26 tumors): significant decrease
tumor growth kinetics during the period of dosing ([1]; 15 mg/kg QD and BID p.o., single agent, versus vehicle, n=10/group): not notably different from the vehicle treated mice
mice still alive ([1]; 99 days after tumor inoculation): 1 out of 10 mice
tumor free mice ([1]; 99 days after tumor inoculation, 10 mice per group): 1 mice
tumor growth kinetics during the period of dosing [2]: less than that of the vehicle group
mice still alive ([3]; 47 days after tumor inoculation): none
tumor growth kinetics during the period of dosing ([3]; single agents (Compound B 15 mg/kg BID; anti-CTLA4) versus vehicle, n=10/group): decreased relative to the vehicle treated mice
tumor growth kinetics during the period of dosing [4]: less than that of the vehicle group and anti-PD1 when dosed alone
